Experimental data: the Deep4Chem optical property database
Blank lines part the entries; values can stand above or below the compound they belong to.

Test: solvent given as SMILES

SMILES: COc1ccc(C#Cc2ccc(C#N)cc2)cc1
fluorescence lifetime (in C1COCCO1): 0.33 ns | fluorescence lifetime (in CC#N): 0.76 ns | fluorescence lifetime (in CCCCCC): 0.34 ns | fluorescence lifetime (in CCCCCCC): 0.35 ns | fluorescence lifetime (in CCCO): 0.6 ns | fluorescence lifetime (in CCOC(C)=O): 0.38 ns | fluorescence lifetime (in CS(C)=O): 1.1 ns | fluorescence lifetime (in ClC(Cl)Cl): 0.38 ns | fluorescence lifetime (in ClCCl): 0.46 ns

SMILES: N#Cc1ccc(-n2cccc2)cc1
fluorescence lifetime (in CC#N): 8.2 ns | fluorescence lifetime (in CCCCCC): 2.42 ns | fluorescence lifetime (in CCOCC): 3.8 ns | fluorescence lifetime (in ClCCl): 3.1 ns

SMILES: COC(=O)/C(C#N)=c1\s/c(=c2/s/c(=C(/C#N)C(=O)OC)c3cc(-c4ccc(F)cc4)sc23)c2sc(-c3ccc(F)cc3)cc12
fluorescence lifetime (in Cc1ccccc1): 2.9 ns

SMILES: N#Cc1c(-n2c3ccccc3c3cc(Br)ccc32)c(C#N)c(-n2c3ccccc3c3cc(Br)ccc32)c(-n2c3ccccc3c3cc(Br)ccc32)c1-n1c2ccccc2c2cc(Br)ccc21
fluorescence lifetime (in Cc1ccccc1): 0.4 ns

SMILES: CC(C)(C)c1ccc(C2=C(c3ccc(N(c4ccccc4)c4ccccc4)cc3)S(=O)(=O)c3c2sc(-c2ccc(N(c4ccccc4)c4ccccc4)cc2)c3-c2ccc(C(C)(C)C)cc2)cc1
fluorescence lifetime (in C1CCOC1): 3.03 ns

SMILES: c1ccc(-c2nnc(-c3ccc(N4c5ccccc5N(c5ccccc5)c5ccccc54)cc3)o2)cc1
fluorescence lifetime (in Cc1ccccc1): 9 ns | fluorescence lifetime (in c1cc(-n2c3ccccc3c3ccccc32)cc(-n2c3ccccc3c3ccccc32)c1): 7 ns

SMILES: COC(=O)C12N=N[C@](C(=O)OC)(C3C4C=CC(C4)C31)[C@@H]1C[C@H]12 (some centres not stated)
fluorescence lifetime (in CC#N): 131 ns

SMILES: COC(=O)c1c(C(=O)OC)c2ccc(C)nn2c1C
fluorescence lifetime (in CCCCCC): 14.1 ns

SMILES: c1ccc(/C(=C(\c2ccccc2)c2ccccc2-c2ccccc2)c2ccccc2-c2ccccc2)cc1
fluorescence lifetime (in C1CCOC1): 4.7 ns

SMILES: O=C1O[B-]2(OC1=O)OC(c1ccccc1)=CC(c1ccc3ccccc3c1)=[O+]2
fluorescence lifetime (in CC#N): 5.4 ns | fluorescence lifetime (in ClC(Cl)(Cl)Cl): 1.6 ns

SMILES: CCCCC(CC)CN1C(=O)c2cc(Oc3ccc(OC)cc3)c3c4c(Cl)cc5c6c(cc(Cl)c(c7c(Oc8ccc(OC)cc8)cc(c2c37)C1=O)c64)C(=O)N(c1c(C(C)C)cccc1C(C)C)C5=O (configuration not stated)
fluorescence lifetime (in Cc1ccccc1): 0.56 ns

SMILES: COC(=O)C(NC(=O)OC(C)(C)C)c1ccc2oc(-c3ccc(C#N)cc3)nc2c1 (configuration not stated)
fluorescence lifetime (in CC1CCCCC1): 1.28 ns | fluorescence lifetime (in CC#N): 1.87 ns | fluorescence lifetime (in CO): 1.92 ns

SMILES: COc1ccc2c3c([nH]c2c1)C(C)=NCC3
fluorescence lifetime (in CC#N): 5.29 ns | fluorescence lifetime (in CS(C)=O): 2.91 ns | fluorescence lifetime (in O): 4.65 ns

SMILES: c1ccc(-c2nc(-c3ccc(-c4nc(-c5ccccc5)c(-c5ccccc5)[nH]4)cc3)[nH]c2-c2ccccc2)cc1
fluorescence lifetime (in CC#N): 1.11 ns | fluorescence lifetime (in CS(C)=O): 1.05 ns

The next lines start with the values.

fluorescence lifetime (in CCCO): 3.9 ns
SMILES: CCOC(=O)c1ccc2c(c1)sc1c3ccc(C(=O)OCC)cc3n(C)c21

fluorescence lifetime (in C1CCCCC1): 17.6 ns | fluorescence lifetime (in CC#N): 24.2 ns | fluorescence lifetime (in CO): 21.5 ns | fluorescence lifetime (in ClCCl): 17.6 ns
SMILES: COc1c2ccccc2c(OC)c2c1c1c(C)ccc(OC)c1n2C

fluorescence lifetime (in CO): 22 ns
SMILES: CCOC(=O)CCCCCn1c2ccc(C)cc2c(=O)c2cc3c(cc21)c(=O)c1cc(C)ccc1n3CCCCCC(=O)OCC

fluorescence lifetime (in C1CCCCC1): 2.04 ns | fluorescence lifetime (in CC#N): 3.27 ns
SMILES: CC(C)c1ccc(/C=C/c2nc3ccc(N(C)C)cc3s2)cc1

fluorescence lifetime (in CCCCCCC): 4.3 ns
SMILES: c1ccc(Nc2nc(Nc3ccccc3)nc(Nc3ccc4ccc5cccc6ccc3c4c56)n2)cc1

fluorescence lifetime (in C1CCOC1): 2.06 ns
SMILES: CN(C)c1ccc(C2=Nc3scc(-c4ccccc4)[n+]3[B-](F)(F)O2)cc1

fluorescence lifetime (in CCCCC): 0.72 ns | fluorescence lifetime (in CCCCCC): 0.67 ns | fluorescence lifetime (in CCCCCCC): 0.67 ns | fluorescence lifetime (in CCCCCCCC): 0.7 ns | fluorescence lifetime (in CCCCCCCCC): 0.7 ns | fluorescence lifetime (in CCCCCCCCCC): 0.71 ns | fluorescence lifetime (in CCCCCCCCCCCC): 0.74 ns | fluorescence lifetime (in CCCCCCCCCCCCC): 0.76 ns | fluorescence lifetime (in CCCCCCCCCCCCCCC): 0.75 ns | fluorescence lifetime (in CCCCCCCCCCCCCCCC): 0.75 ns | fluorescence lifetime (in CCCCCCCCCCO): 0.8 ns | fluorescence lifetime (in CCCCCCCCCO): 0.74 ns | fluorescence lifetime (in CCCCCCCCO): 0.75 ns | fluorescence lifetime (in CCCCCCCO): 0.75 ns | fluorescence lifetime (in CCCCCCO): 0.76 ns | fluorescence lifetime (in CCCCCO): 0.76 ns | fluorescence lifetime (in CCCCO): 0.78 ns | fluorescence lifetime (in CCCO): 0.8 ns | fluorescence lifetime (in CCO): 0.8 ns | fluorescence lifetime (in CO): 0.78 ns
SMILES: CCC1(CC)c2cc(-c3ccc4c(c3)C(CC)(CC)c3cc(C(C)(C)C)ccc3-4)ccc2-c2ccc(-c3ccc4c(c3)C(CC)(CC)c3cc(C(C)(C)C)ccc3-4)cc21

fluorescence lifetime (in ClC(Cl)Cl): 10.9 ns
SMILES: O=C1c2ccccc2-c2ccc(N3CCOCC3)c3cccc1c23

fluorescence lifetime (in C1CCCCC1): 0.75 ns | fluorescence lifetime (in CC#N): 0.84 ns
SMILES: FC(F)(F)c1ccc(/C=C/c2nc3c(ccc4ccccc43)s2)cc1

fluorescence lifetime (in CO): 0.2 ns | fluorescence lifetime (in ClC(Cl)Cl): 1.52 ns
SMILES: CCN1C(=CC2=C([O-])C(=CC3=[N+](CC)c4ccccc4C3(C)C)C2=O)C(C)(C)c2ccccc21
